Values quoted from earlier work in patent US11549142B2, “CETP inhibitors for therapeutic use” (Hoffmann-La Roche Inc., priority 2013, dated 2023).

Test system: patients
Conditions: torcetrapib and atorvastatin concomitantly compared to atorvastatin alone; cited from earlier work

CCOC(=O)N1c2ccc(C(F)(F)F)cc2[C@@H](N(Cc2cc(C(F)(F)F)cc(C(F)(F)F)c2)C(=O)OC)C[C@H]1CC [torcetrapib, (2R,4S)-4-[(3,5-bistrifluoromethylbenzyl)methoxycarbonylamino]-2-ethyl-6-trifluoromethyl-3,4-dihydro-2H-quinoline-1-carboxylic acid ethyl ester]
reason for termination of the Phase III clinical trial: incidence of mortality
